Legend:
wheat [1] = assay: Greenhouse comparison of wheat growth after 25 mM seed treatments of three dithiophosphates; format: in vivo; conditions: 25 mM seed treatment in diluted SPRET, 7% w/v, 21 days after planting
Description: (§1) All greenhouse experiments took place under a 16-hour photoperiod with temperatures set to 22° C. day and 18° C. night.
Dithiophosphates have different chemical properties depending on the length of their chains. For instance, the length of the carbon chain influences solubility of the chemical and the rate of H2S release. Growth of wheat when treated with 25 mM seed treatments of three different DTPs: dibutyldithiophosphate (C4), dioctyldithiophosphate (C8), and dihexyldecycldithiophosphate (C16) was evaluated. Chemical amount per seed used in 25 mM seed treatment applications is described in Table 1. Seed was treated with a 25 mM solution in which the DTP was dissolved in a low concentration of SPRET non-ionic surfactant (Method 1 below). After seeds had dried, they were sown in moist potting soil at a rate of 4 seeds per pot and then not watered for 5 days. There were 5 reps for each treatment where each rep was the average from a single pot. Measurements were collected 21 days after planting. Tiller number was improved for each of the three DTP treatments but was most improved with the dibutyl dithiophosphate (C4) source (FIG. 4).
(§2) Two seed treatment methods were examined: 1) Seed treated with DBDTP applied using a non-ionic surfactant and 2) Seed treated with DBDTP added to commonly used pesticide seed treatments (Example 8). For this testing, DBDTP was used as the dithiophosphate source. Note that the seed treatment concentration and volume is not standard across plant species. Each species tolerates a different level of DBDTP and the volume used to treat each species is dependent on seed size. After adding treatment to seed, seed was rolled for 5 minutes. Seed was then exposed to air and allowed to dry completely prior to planting.
(§3) For this method, the non-ionic wetter/spreader surfactant used for all treatments was SPRET (Helena Holding Company). The lowest recommended SPRET concentration was selected from the product label (1.25 mL/L H2O).

wheat [2] = assay: Greenhouse test of DBDTP added to Cruiser Maxx Vibrance Cereals slurry for wheat; format: in vivo
Description: (§4) For this method, DBDTP amounts were combined with commonly used seed treatment pesticides using the recommended, crop-specific amount on the product label. The pesticides that were used include Obvius Plus Specimen fungicide seed treatment (BASF Corporation), Dyna-Shield imidacloprid 5 (Loveland Products), and Cruiser Maxx Vibrance Cereals (Syngenta). Pesticide amounts correspond to species-specific recommended amounts on the product label. After treatments were added to seeds, seed was rolled 5 minutes and allowed to dry completely.
DBDTP was added to a slurry of Cruiser Maxx Vibrance Cereals according to Table 8. Prior to the addition of DBDTP, the pesticide was diluted 1:1 Cruiser:H2O. DBDTP was added to the diluted Cruiser, such that 2.1 mg DBDTP was added to 62.5 μL to treat 5 g of seed. This experiment was planted in the greenhouse, and at 14 days after planting, the 25 mM treated seed was taller and had more tillers than the 0 mM control (FIG. 13). This experiment was planted in two separate greenhouses-one where the lights had been recently replaced with new LED lights, and one where the old light system remained. […] The main difference observed between the lights was that growth was much enhanced under the new lights, boosting tillering overall. This means that tillering differences due to DBDTP treatment may be observed earlier under the new LED light system.

wheat [3] = assay: Wheat germination test (cigar roll method) in aqueous DBDTP; format: in vivo; conditions: wheat seeds in germination paper rolls, 7 days, compared to the 0 mg/L control; 41.2 μM-1.03 mM
Description: Wheat: For germination tests, 50 wheat seeds were placed within a roll of germination paper using the cigar roll method (Bai C, 2013, J Exp Bot, 64:1745-1753) with n=50. Rolls were placed upright in tubs containing varying concentrations of DBDTP in water, such that the end of the roll was submerged 3″ into the solution. Lids were placed on tubs, then shoot and root length measurements were recorded after 7 days.

MT Dagmar spring wheat = assay: Field trial of DBDTP treated wheat seed; format: in vivo
Description: Seed treatment levels consisted of 0, 12.5, 25, 50, and 100 mM DBDTP as in Table 2 and applied in a 7% w/v solution. All seed for each treatment (1000 g) was treated at one time and then once dried it was weighed out for planting in single rows. For each seed treatment level, 15 reps were planted using a complete, randomized block design. Each rep consisted of a 10′, 2 row plot. Plots were seeded at a rate of 10 g/row. Seed was tractor planted, and prior to planting, the field was worked, and N was delivered to achieve 390 Ibs urea/acre. […] The 12.5 mM and 25 mM seed treatments appear to be the best concentrations to boost grain yield as well, as these treatments yielded an average of 3.5-5% higher respectively than the 0 mM control (FIG. 7B). An ideal treatment range encompasses the 12.5 mM and 25 mM treatments and high end of ideal concentrations likely lies between the 25 mM and 50 mM treatments.

Cherry Belle F1 radish = assay: Field trial of DBDTP treated radish seed; format: in vivo
Description: Seed treatment levels consisted of 0, 12.5, 25, 50, and 100 mM DBDTP (Table 5) and seed was treated with a 7% w/v solution of diluted SPRET surfactant and DBDTP. For each seed treatment level, 15 reps were planted using a complete, randomized block design. Each rep consisted of a single 3′ row plot. Plots were seeded at a rate of 36 seeds/row and thinned to 4-6″ apart. Root fresh weight was averaged for each row and each row was considered a single rep. Root biomass was increased compared to the control at the 12.5 mM treatment level (FIG. 10). This corresponded to 0.001 mg/seed. Radish root growth likely be enhanced with an application rate in a range of 0.001-0.005 mg DBDTP/seed.

wheat [4] = assay: Greenhouse tests to identify ideal DBDTP seed treatment concentrations for wheat (SPRET surfactant); format: in vivo
Description: as §1, §2, §3
Greenhouse tests to identify ideal DBDTP seed treatment concentrations: A 7% w/v solution was used for each DBDTP treatment to achieve an even coating of wheat seeds. For each DBDTP level, small amounts of DBDTP were dissolved in the SPRET solution according to Table 2 and seed was treated with a 7% w/v solution. Five seeds were sown in 6″ pots and averaged for a single rep. Each DBDTP treatment had three replications.

wheat [5] = assay: Greenhouse trial, wheat with slow-release fertilizer and aqueous delivery of DBDTP; format: in vivo; conditions: 5 and 25 mg/pot DBDTP in 200 mL water, in the presence of fertilizer (Osmocote), 4 weeks after planting
Description: as §1
Wheat: To test whether the germination test growth enhancement response observed in wheat would still occur in the presence of added nitrogen fertilizer, wheat was grown under varying levels of slow-release fertilizer (Osmocote) and then watered in with an aqueous solution of DBDTP (see Carter J M, et al., 2019, J. Agric Food Chem. 67:11883-11892). Osmocote was added to potting soil according to the label to achieve low or medium fertilization rates. Prior to planting, pots were watered and seed was sown into moist potting soil. Immediately after planting, each pot was watered with 200 mL water containing, 0, 5, 25, 50, 100, or 500 mg dissolved DBDTP. Pots were not watered for ~5 days after planting to avoid flushing DBDTP out of the pot.

chickpea = assay: Greenhouse test of DBDTP seed treatment concentration for chickpea growth (pesticide slurry); format: in vivo
Description: as §4
This test took place in the greenhouse. Seed was treated according to Table 7. Prior to planting, pots were watered and seed was sown into moist potting soil. Pots were not watered for 5 days after planting to avoid flushing DBDTP out of the pot. […] An ideal range likely falls between 0.05-0.46 mg DBDTP/seed.

pea [6] = assay: Greenhouse trial, pea with aqueous delivery of DBDTP; format: in vivo; conditions: 4 weeks after planting
Description: as §1
Pea: Prior to planting, pots were watered and seed was sown into moist potting soil. Immediately after planting, each pot was watered with 200 mL water containing, 0, 5, 25, 50, 100, or 500 mg dissolved DBDTP. Pots were not watered for ~5 days after planting to avoid flushing DBDTP out of the pot.

Provider bush beans = assay: Field trial of DBDTP treated green bean seed; format: in vivo
Description: Seed treatment levels consisted of 0, 175 mM, 350 mM, 700 mM, and 1.4 M DBDTP (Table 3) and seed was treated with a 5% w/v solution of diluted SPRET surfactant and DBDTP. For each seed treatment level, 15 reps were planted using a complete, randomized block design. Each rep consisted of a 3′, 2 row plot with 18 seeds planted per row. Entire plants were harvested at maturity and biomass was averaged for each row. Each row was considered a single rep. For each plot of treated seed, biomass was increased compared to the 0 mM control (FIG. 8A). […] Depending on whether the goal was to increase seed weight, or plant biomass, an ideal treatment range encompasses the 175 mM, 350 mM, and 700 mM treatments. These concentrations correspond to a range of 0.07-0.28 mg DBDTP/seed.

MT 457 green field pea = assay: Field trial of DBDTP treated green field pea (with pesticide seed treatments); format: in vivo
Description: as §4
Seed treatment levels consisted of 0, 52, 103, 207, and 413 mM DBDTP (Table 6). Seed was treated with a 1.7% w/v solution that included DBDTP and seed treatment pesticides Dyna-Shield and Obvius (Table 6). After seed was treated and dried, it was inoculated with N Charge Inoculant for Pea, Vetch, and Lentil (Verdesian; 1.40 g/450 g seed) and planted within the same day as inoculating. For each seed treatment level, 15 reps were planted using a complete, randomized block design. Each rep consisted of a 10′, 2 row plot with 60 seeds planted per row. Mature seed was harvested for each plot. […] Seed yield was increased under all treatment levels tested, in a range of 0.04-0.31 mg/seed.

pea [7] = assay: Pea germination test (cigar roll method) in aqueous DBDTP; format: in vivo; conditions: at all levels of DBDTP tested, 7 days
Description: Pea: For germination tests, 25 pea seeds were placed within each roll of germination paper using the cigar method described above. Measurements were recorded after 7 days with n=250.

corn = conditions: addition to a commercial liquid starter fertilizer applied in furrow with the seeds; cited from earlier work
Avondale lentil = assay: Greenhouse test of DBDTP seed treatment concentration for lentil growth; format: in vivo
Description: Testing was carried out in the greenhouse. Seed was treated according to Table 4. Prior to planting, pots were watered and seed was sown into moist potting soil. Pots were not watered for 5 days after planting to avoid flushing DBDTP out of the pot. […] Seed was treated with a 1.5% w/v solution of diluted SPRET surfactant with addition of DBDTP. Early plant growth was boosted between treatment concentrations 0.188 M-1.7 M. A likely beneficial treatment range lies between 0.03-0.26 mg/seed.

[8] = 25 mM in Cruiser Maxx Vibrance Cereals slurry, 14 days after planting, vs 0 mM control
[9] = seed treatments of up to 50 mM DBDTP, 35 days after planting

Molecule: CCCCCCCCOP(=S)(S)OCCCCCCCC [dioctyldithiophosphate (C8), dioctyldithiophosphate]
- tiller number (wheat [1]): improved

Molecule: dihexyldecycldithiophosphate [dihexyldecycldithiophosphate (C16)]
- tiller number (wheat [1]): improved

Molecule: CCCCOP(=S)(S)OCCCC [DBDTP, dibutyl dithiophosphate]
- plant height (wheat [2]; [8]): taller
- tiller number (wheat [2]; [8]): more tillers
- performance against control in both greenhouses (new LED lights, old light system) (wheat [2]; 25 mM treated seed): outperformed the control
- DBDTP concentration range with positive growth response (shoot and root length) (wheat [3]): 10 to 250 mg/L
- grain yield, average increase over the 0 mM control (MT Dagmar spring wheat; 12.5 mM seed treatment): 3.5%
- grain yield, average increase over the 0 mM control (MT Dagmar spring wheat; 25 mM seed treatment): 5%
- plant growth and yield (MT Dagmar spring wheat; 100 mM DBDTP seed treatment): significantly diminished
- tiller number (MT Dagmar spring wheat; 12.5 and 25 mM seed treatment, 4 weeks after planting, vs 0 mM control): significantly higher
- root biomass (root fresh weight) (Cherry Belle F1 radish; 12.5 mM treatment level (0.001 mg/seed), vs control): increased
- Likely ideal DBDTP range, radish (Cherry Belle F1 radish; seed treatment, radish): 0.001-0.005 mg/seed
- tiller number (wheat [1]): most improved
- germination (wheat [4]; seed treatment doses higher than 50 mM, 7% w/v in SPRET): reduce germination
- plant height (wheat [4]; [9]): enhanced
- tiller number (wheat [4]; [9]): enhanced
- tiller number (wheat [5]): boost to tiller number
- growth response of chickpea (chickpea; 100 mM treatment level in pesticide slurry, 14 days after planting): positive DBDTP growth response
- Likely ideal DBDTP range, chickpea (chickpea; seed treatment, chickpea): 0.05-0.46 mg/seed
- growth response (pea vine length), best doses (pea [6]; 100 and 500 mg/pot DBDTP): greatest boost to growth
- growth response (pea vine length) (pea [6]; each DBDTP treatment (5, 25, 50, 100, 500 mg/pot in 200 mL water)): positive response
- plant biomass (Provider bush beans; each plot of treated seed (175 mM, 350 mM, 700 mM, 1.4 M), harvested at maturity, vs 0 mM control): increased
- seed pod weight (Provider bush beans; lowest level tested (175 mM), vs control): increased
- Likely ideal DBDTP range, green bean (Provider bush beans; seed treatment, green bean): 0.07-0.28 mg/seed
- seed yield, best treatment (MT 457 green field pea; 413 mM treated seed): highest yielding
- seed yield (MT 457 green field pea; each plot of treated seed (52, 103, 207, 413 mM), with Dyna-Shield and Obvius, vs control): increased
- Likely ideal DBDTP range, pea (range in which seed yield was increased) (MT 457 green field pea; seed treatment, pea): 0.04-0.31 mg/seed
- growth response of pea seedlings (pea [7]): positive growth response
- corn yield (corn): increases corn yield
- growth response of lentil (Avondale lentil; around the 375 mM treatment level, 14 days after planting, 1.5% w/v SPRET): positive DBDTP growth response
- Likely ideal (beneficial) DBDTP range, lentil (Avondale lentil; seed treatment, lentil): 0.03-0.26 mg/seed

— patent publication US20260231951A1, “COATED SEEDS AND METHODS TO IMPROVE CROPS” (MONTANA STATE UNIVERSITY, priority 2023, published 2026)
